In PubChem BioAssay (NCI):
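Each compound was tested at five concentrations against cells in 96-well plates for 48 hours. GI50 is the concentration that inhibits growth by half. TGI denotes the concentration required for complete inhibition of growth.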

Assays:
Test in all cases: DTP human tumour cell line panel, 48 h
COLO 205 colon = system: COLO 205 colon
HT29 colon = system: HT29 colon
NCI/ADR-RES ovarian = system: NCI/ADR-RES ovarian
SF-539 CNS = system: SF-539 CNS
HCC-2998 colon = system: HCC-2998 colon
SK-MEL-5 melanoma = system: SK-MEL-5 melanoma
SN12C renal = system: SN12C renal
HOP-62 NSCLC = system: HOP-62 NSCLC
MDA-MB-231 breast = system: MDA-MB-231 breast
SNB-19 CNS = system: SNB-19 CNS
MALME-3M melanoma = system: MALME-3M melanoma
A498 renal = system: A498 renal
SK-MEL-2 melanoma = system: SK-MEL-2 melanoma
PC-3 prostate = system: PC-3 prostate
SR leukemia = system: SR leukemia
EKVX NSCLC = system: EKVX NSCLC
K-562 leukemia = system: K-562 leukemia
NCI-H522 lung = system: NCI-H522 lung
LOX IMVI melanoma = system: LOX IMVI melanoma
NCI-H460 lung = system: NCI-H460 lung
MDA-MB-435 = system: MDA-MB-435
KM12 colon = system: KM12 colon
MCF7 breast = system: MCF7 breast
HOP-92 NSCLC = system: HOP-92 NSCLC
TK-10 renal = system: TK-10 renal
SNB-75 CNS = system: SNB-75 CNS
DU-145 prostate = system: DU-145 prostate
UO-31 renal = system: UO-31 renal
U251 CNS = system: U251 CNS
UACC-257 melanoma = system: UACC-257 melanoma
SK-OV-3 ovarian = system: SK-OV-3 ovarian
IGROV1 ovarian = system: IGROV1 ovarian
UACC-62 melanoma = system: UACC-62 melanoma
RXF 393 renal = system: RXF 393 renal
HL-60(TB) leukemia = system: HL-60(TB) leukemia
786-0 renal = system: 786-0 renal
M14 melanoma = system: M14 melanoma
OVCAR-4 ovarian = system: OVCAR-4 ovarian
RPMI-8226 leukemia = system: RPMI-8226 leukemia
CAKI-1 renal = system: CAKI-1 renal
OVCAR-5 ovarian = system: OVCAR-5 ovarian
BT-549 breast = system: BT-549 breast
ACHN renal = system: ACHN renal
HS 578T breast = system: HS 578T breast
HCT-15 colon = system: HCT-15 colon
SK-MEL-28 melanoma = system: SK-MEL-28 melanoma
HCT-116 colon = system: HCT-116 colon
OVCAR-8 ovarian = system: OVCAR-8 ovarian
NCI-H226 lung = system: NCI-H226 lung
SF-295 CNS = system: SF-295 CNS
SF-268 CNS = system: SF-268 CNS
SW-620 colon = system: SW-620 colon
A549 NSCLC = system: A549 NSCLC

For COc1cccc(N2CCN(C3=C(Cl)C(=O)c4ncccc4C3=O)CC2)c1, the GI50 (COLO 205 colon) was 1870 nM, the TGI (COLO 205 colon) was 4.01 µM and the GI50 (HT29 colon) was 12.2 µM. It also gave a TGI (HT29 colon) of 28.6 µM, a GI50 (NCI/ADR-RES ovarian) of 3.36 µM and a TGI (NCI/ADR-RES ovarian) of 15.5 µM. It also gave a GI50 (SF-539 CNS) of 11.4 µM, a TGI (SF-539 CNS) of 23.6 µM and a GI50 (HCC-2998 colon) of 12.1 µM. It also gave a TGI (HCC-2998 colon) of 25.5 µM, a GI50 (SK-MEL-5 melanoma) of 11.5 µM and a TGI (SK-MEL-5 melanoma) of 23.8 µM. The GI50 (SN12C renal) was 5.19 µM, the TGI (SN12C renal) was 20.2 µM and the GI50 (HOP-62 NSCLC) was 18.5 µM. For the same molecule, the TGI (HOP-62 NSCLC) was 33.2 µM, the GI50 (MDA-MB-231 breast) was 1680 nM and the TGI (MDA-MB-231 breast) was 3.2 µM. The GI50 (SNB-19 CNS) was 16.2 µM, the TGI (SNB-19 CNS) was 32.9 µM and the GI50 (MALME-3M melanoma) was 1840 nM. For the same molecule, the TGI (MALME-3M melanoma) was 4.06 µM, the GI50 (A498 renal) was 13.5 µM and the TGI (A498 renal) was 26.4 µM. For the same molecule, the GI50 (SK-MEL-2 melanoma) was 6.25 µM, the TGI (SK-MEL-2 melanoma) was 19.3 µM and the GI50 (PC-3 prostate) was 8.55 µM. The TGI (PC-3 prostate) was 22.3 µM, the GI50 (SR leukemia) was 1800 nM and the TGI (SR leukemia) was 5.38 µM. The GI50 (EKVX NSCLC) was 2050 nM, the TGI (EKVX NSCLC) was 4.42 µM and the GI50 (K-562 leukemia) was 2300 nM. It also gave a TGI (K-562 leukemia) of 6.28 µM, a GI50 (NCI-H522 lung) of 1730 nM and a TGI (NCI-H522 lung) of 3.39 µM. For the same molecule, the GI50 (LOX IMVI melanoma) was 1620 nM, the TGI (LOX IMVI melanoma) was 3.12 µM and the GI50 (NCI-H460 lung) was 7.26 µM. For the same molecule, the TGI (NCI-H460 lung) was 26.7 µM, the GI50 (MDA-MB-435) was 1790 nM and the TGI (MDA-MB-435) was 3.34 µM. It also gave a GI50 (KM12 colon) of 20.3 µM, a TGI (KM12 colon) of 41.7 µM and a GI50 (MCF7 breast) of 1980 nM. The TGI (MCF7 breast) was 5.86 µM, the GI50 (HOP-92 NSCLC) was 1630 nM and the TGI (HOP-92 NSCLC) was 3.07 µM. The GI50 (TK-10 renal) was 4.18 µM, the TGI (TK-10 renal) was 13.2 µM and the GI50 (SNB-75 CNS) was 11.8 µM. For the same molecule, the TGI (SNB-75 CNS) was 24.7 µM, the GI50 (DU-145 prostate) was 11.1 µM and the TGI (DU-145 prostate) was 23.1 µM. The GI50 (UO-31 renal) was 1640 nM, the TGI (UO-31 renal) was 3.4 µM and the GI50 (U251 CNS) was 5.46 µM. For the same molecule, the TGI (U251 CNS) was 19.5 µM, the GI50 (UACC-257 melanoma) was 2120 nM and the TGI (UACC-257 melanoma) was 5.23 µM. It also gave a GI50 (SK-OV-3 ovarian) of 15.4 µM, a TGI (SK-OV-3 ovarian) of 46.2 µM and a GI50 (IGROV1 ovarian) of 2930 nM. It also gave a TGI (IGROV1 ovarian) of 9.52 µM, a GI50 (UACC-62 melanoma) of 3.48 µM and a TGI (UACC-62 melanoma) of 12.3 µM. For the same molecule, the GI50 (RXF 393 renal) was 1770 nM, the TGI (RXF 393 renal) was 3.25 µM and the GI50 (HL-60(TB) leukemia) was 1750 nM. For the same molecule, the TGI (HL-60(TB) leukemia) was 4.47 µM, the GI50 (786-0 renal) was 5.02 µM and the TGI (786-0 renal) was 16.3 µM. For the same molecule, the GI50 (M14 melanoma) was 3.27 µM, the TGI (M14 melanoma) was 13 µM and the GI50 (OVCAR-4 ovarian) was 1730 nM. The TGI (OVCAR-4 ovarian) was 3.26 µM, the GI50 (RPMI-8226 leukemia) was 2270 nM and the TGI (RPMI-8226 leukemia) was 5.92 µM. It also gave a GI50 (CAKI-1 renal) of 2640 nM, a TGI (CAKI-1 renal) of 8.15 µM and a GI50 (OVCAR-5 ovarian) of 15.4 µM. For the same molecule, the TGI (OVCAR-5 ovarian) was 30.3 µM, the GI50 (BT-549 breast) was 6.75 µM and the TGI (BT-549 breast) was 18.3 µM. It also gave a GI50 (ACHN renal) of 1760 nM, a TGI (ACHN renal) of 3.19 µM and a GI50 (HS 578T breast) of 10 µM. It also gave a TGI (HS 578T breast) of 51.5 µM, a GI50 (HCT-15 colon) of 2050 nM and a TGI (HCT-15 colon) of 5.6 µM. For the same molecule, the GI50 (SK-MEL-28 melanoma) was 3.3 µM, the TGI (SK-MEL-28 melanoma) was 9.58 µM and the GI50 (HCT-116 colon) was 1730 nM. For the same molecule, the TGI (HCT-116 colon) was 3.18 µM, the GI50 (OVCAR-8 ovarian) was 2000 nM and the TGI (OVCAR-8 ovarian) was 5.01 µM. The GI50 (NCI-H226 lung) was 14 µM, the TGI (NCI-H226 lung) was 31.9 µM and the GI50 (SF-295 CNS) was 12.5 µM. It also gave a TGI (SF-295 CNS) of 26.2 µM, a GI50 (SF-268 CNS) of 13.1 µM and a TGI (SF-268 CNS) of 29.6 µM. For the same molecule, the GI50 (SW-620 colon) was 1640 nM, the TGI (SW-620 colon) was 3.32 µM and the GI50 (A549 NSCLC) was 15.5 µM. It also gave a TGI (A549 NSCLC) of 33 µM.
